Experimental data taken from patent US10800792B2, “Inhibitors of Bruton's tyrosine kinase and method of their use” (JANSSEN PHARMACEUTICA NV, priority 2015, dated 2020).

Target: unphosphorylated-BTK kinase domain (UP-BTK), GST-tagged human BTK (389-659aa) (Homo sapiens (Human), UniProt Q06187)
Experiment: BTK kinase Lanthascreen binding assay
Details: pIC50 = negative log of the IC50 in molar; 60 minutes incubation, 50 nM Tracer 236
In short: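 Tracer-displacement binding assay against the non-phosphorylated enzyme, read by Lanthascreen. Reported: pIC50.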

unphosphorylated-BTK kinase domain (UP-BTK), GST-tagged human BTK (389-659aa), sequence (Q06187 389-659): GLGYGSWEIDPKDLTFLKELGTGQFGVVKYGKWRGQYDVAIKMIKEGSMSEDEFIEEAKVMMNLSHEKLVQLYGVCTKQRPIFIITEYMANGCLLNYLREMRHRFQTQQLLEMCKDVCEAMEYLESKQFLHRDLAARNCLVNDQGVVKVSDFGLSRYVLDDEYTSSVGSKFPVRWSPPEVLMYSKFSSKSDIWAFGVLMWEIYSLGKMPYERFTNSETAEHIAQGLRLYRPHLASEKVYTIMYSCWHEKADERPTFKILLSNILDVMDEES

SMILES	BTK_I_binding pIC50
C=CC(=O)N1CCC[C@@H](NC(=O)c2sc3nccc4c3c2NC(=O)N4c2ccc(OCC)cc2C)C1 [Example 66, (R)—N-(1-Acryloylpiperidin-3-yl)-5-(4-ethoxy-2-methylphenyl)-4-oxo-4,5-dihydro-3H-1-thia-3,5,8-triazaacenaphthylene-2-carboxamide]	7.4
C=CC(=O)N1CCC[C@@H](NC(=O)c2sc3nccc4c3c2NC(=O)N4c2c(F)cc(Oc3ccccc3)cc2F)C1 [Example 69, (R)—N-(1-Acryloylpiperidin-3-yl)-5-(2,6-difluoro-4-phenoxyphenyl)-4-oxo-4,5-dihydro-3H-1-thia-3,5,8-triazaacenaphthylene-2-carboxamide]	7.7
Cc1cc(Oc2cccc3ccoc23)ccc1N1C(=O)Nc2c(C(=O)N[C@@H]3CCCN(C)C3)sc3nccc1c23 [Example 70, (R)-5-(4-(Benzofuran-7-yloxy)-2-methylphenyl)-N-(1-methylpiperidin-3-yl)-4-oxo-4,5-dihydro-3H-1-thia-3,5,8-triazaacenaphthylene-2-carboxamide]	7.1
Cc1c(N2C(=O)Nc3c(C(=O)N[C@@H]4CCCOC4)sc4nccc2c34)ccc(Oc2ccccc2)c1F [Example 71, (R)-5-(3-Fluoro-2-methyl-4-phenoxyphenyl)-4-oxo-N-(tetrahydro-2H-pyran-3-yl)-4,5-dihydro-3H-1-thia-3,5,8-triazaacenaphthylene-2-carboxamide]	7.5
COc1ccccc1Oc1ccc(N2C(=O)Nc3c(C(=O)N[C@@H]4CCCN(C)C4)sc4nccc2c34)c(C)c1 [Example 73, (R)-5-(4-(2-Methoxyphenoxy)-2-methylphenyl)-N-(1-methylpiperidin-3-yl)-4-oxo-4,5-dihydro-3H-1-thia-3,5,8-triazaacenaphthylene-2-carboxamide]	6.8
CCc1ccccc1Oc1ccc(N2C(=O)Nc3c(C(=O)N[C@@H]4CCCN(C(=O)/C(C#N)=C/C5CC5)C4)sc4nccc2c34)c(C)c1 [Example 76, (R,E)-N-(1-(2-Cyano-3-cyclopropylacryloyl)piperidin-3-yl)-5-(4-(2-ethylphenoxy)-2-methylphenyl)-4-oxo-4,5-dihydro-3H-1-thia-3,5,8-triazaacenaphthylene-2-carboxamide]	6.8
C=CC(=O)N1CC[C@@H](NC(=O)c2sc3nccc4c3c2NC(=O)N4c2ccc(Oc3ccccc3)c(C)c2C)C1 [Example 77, (R)—N-(1-Acryloylpyrrolidin-3-yl)-5-(2,3-dimethyl-4-phenoxyphenyl)-4-oxo-4,5-dihydro-3H-1-thia-3,5,8-triazaacenaphthylene-2-carboxamide]	6.9
N#C/C(=C\C1CC1)C(=O)N1CCC[C@@H](NC(=O)c2sc3nccc4c3c2NC(=O)N4c2ccc(Oc3ccccc3)cc2F)C1 [Example 79, (R,E)-N-(1-(2-Cyano-3-cyclopropylacryloyl)piperidin-3-yl)-5-(2-fluoro-4-phenoxyphenyl)-4-oxo-4,5-dihydro-3H-1-thia-3,5,8-triazaacenaphthylene-2-carboxamide]	7.5
C=CC(=O)N1CC[C@@H](NC(=O)c2sc3nccc4c3c2NC(=O)N4c2c(C)cc(Oc3ccccc3)cc2C)C1 [Example 81, (R)—N-(1-Acryloylpyrrolidin-3-yl)-5-(2,6-dimethyl-4-phenoxyphenyl)-4-oxo-4,5-dihydro-3H-1-thia-3,5,8-triazaacenaphthylene-2-carboxamide]	6.6
C=CC(=O)N1CCC[C@@H](NC(=O)c2sc3nccc4c3c2NC(=O)N4c2ccc(S(F)(F)(F)(F)F)cc2C)C1 [Example 83, (R)—N-(1-Acryloylpiperidin-3-yl)-5-(2-methyl-4-(pentafluorothio)phenyl)-4-oxo-4,5-dihydro-3H-1-thia-3,5,8-triazaacenaphthylene-2-carboxamide]	6.8
C=CC(=O)N1CCC[C@@H](NC(=O)c2sc3nccc4c3c2NC(=O)N4c2ccc(C)cc2C)C1 [Example 86, (R)—N-(1-Acryloylpiperidin-3-yl)-5-(2,4-dimethylphenyl)-4-oxo-4,5-dihydro-3H-1-thia-3,5,8-triazaacenaphthylene-2-carboxamide]	6.7
Cc1cc(Oc2ccccc2)ccc1N1C(=O)Nc2c(C(=O)N[C@H]3CCOC3)sc3nccc1c23 [Example 90, (S)-5-(2-Methyl-4-phenoxyphenyl)-4-oxo-N-(tetrahydrofuran-3-yl)-4,5-dihydro-3H-1-thia-3,5,8-triazaacenaphthylene-2-carboxamide]	7.5
COCCC(=O)N1C[C@@H](F)[C@@H](NC(=O)c2sc3nccc4c3c2NC(=O)N4c2ccc(Oc3ccccc3)cc2C)C1 [Example 94, N-((3S,4R)-4-Fluoro-1-(3-methoxypropanoyl)pyrrolidin-3-yl)-5-(2-methyl-4-phenoxyphenyl)-4-oxo-4,5-dihydro-3H-1-thia-3,5,8-triazaacenaphthylene-2-carboxamide]	7.6
Cc1cc(OC(C)C)ccc1N1C(=O)Nc2c(C(=O)N[C@@H]3CCCN(C(=O)/C(C#N)=C/C4CC4)C3)sc3nccc1c23 [Example 102, (R,E)-N-(1-(2-Cyano-3-cyclopropylacryloyl)piperidin-3-yl)-5-(4-isopropoxy-2-methylphenyl)-4-oxo-4,5-dihydro-3H-1-thia-3,5,8-triazaacenaphthylene-2-carboxamide]	7.5
Cc1cc(Oc2ccccc2)ccc1N1C(=O)Nc2c(C(=O)NC3CCC(C)N(C)C3)sc3nccc1c23 (centres unmarked) [Example 103, N-(1,6-Dimethylpiperidin-3-yl)-5-(2-methyl-4-phenoxyphenyl)-4-oxo-4,5-dihydro-3H-1-thia-3,5,8-triazaacenaphthylene-2-carboxamide]	6.7

The remaining lines, values ahead:

BTK_I_binding pIC50	SMILES
7.5	Cc1cc(Oc2ccccc2)ccc1N1C(=O)Nc2c(C(=O)N[C@H]3CCCOC3)sc3nccc1c23 [Example 67, (S)-5-(2-Methyl-4-phenoxyphenyl)-4-oxo-N-(tetrahydro-2H-pyran-3-yl)-4,5-dihydro-3H-1-thia-3,5,8-triazaacenaphthylene-2-carboxamide]
7.4	COCCC(=O)N1CC[C@@H](NC(=O)c2sc3nccc4c3c2NC(=O)N4c2ccc(Oc3ccccc3)cc2C)C1 [Example 72, (R)—N-(1-(3-Methoxypropanoyl)pyrrolidin-3-yl)-5-(2-methyl-4-phenoxyphenyl)-4-oxo-4,5-dihydro-3H-1-thia-3,5,8-triazaacenaphthylene-2-carboxamide]
6.9	CCN1CCC[C@@H](NC(=O)c2sc3nccc4c3c2NC(=O)N4c2ccc(Oc3ccccc3)cc2C)C1 [Example 74, (R)—N-(1-Ethylpiperidin-3-yl)-5-(2-methyl-4-phenoxyphenyl)-4-oxo-4,5-dihydro-3H-1-thia-3,5,8-triazaacenaphthylene-2-carboxamide]
7.2	Cc1cc(Oc2ccccc2)ccc1N1C(=O)Nc2c(C(=O)N[C@@H]3CCCN(C(=O)CCO)C3)sc3nccc1c23 [Example 75, (R)—N-(1-(3-Hydroxypropanoyl)piperidin-3-yl)-5-(2-methyl-4-phenoxyphenyl)-4-oxo-4,5-dihydro-3H-1-thia-3,5,8-triazaacenaphthylene-2-carboxamide]
7.3	Cc1cc(Oc2ccccc2)ccc1N1C(=O)Nc2c(C(=O)N[C@@H]3CCCN(C(=O)CN(C)C)C3)sc3nccc1c23 [Example 78, (R)—N-(1-(2-(Dimethylamino)acetyl)piperidin-3-yl)-5-(2-methyl-4-phenoxyphenyl)-4-oxo-4,5-dihydro-3H-1-thia-3,5,8-triazaacenaphthylene-2-carboxamide]
7.1	COCCC(=O)N1CCC[C@@H](NC(=O)c2sc3nccc4c3c2NC(=O)N4c2ccc(Oc3ccccc3)c(F)c2C)C1 [Example 89, (R)-5-(3-Fluoro-2-methyl-4-phenoxyphenyl)-N-(1-(3-methoxypropanoyl)piperidin-3-yl)-4-oxo-4,5-dihydro-3H-1-thia-3,5,8-triazaacenaphthylene-2-carboxamide]
7.3	CNCC(=O)N1CCC[C@@H](NC(=O)c2sc3nccc4c3c2NC(=O)N4c2ccc(Oc3ccccc3)cc2C)C1 [Example 91, (R)-5-(2-Methyl-4-phenoxyphenyl)-N-(1-(2-(methylamino)acetyl)piperidin-3-yl)-4-oxo-4,5-dihydro-3H-1-thia-3,5,8-triazaacenaphthylene-2-carboxamide]
7.4	COCC(=O)N1CCC[C@@H](NC(=O)c2sc3nccc4c3c2NC(=O)N4c2ccc(Oc3ccccc3)cc2C)C1 [Example 95, (R)—N-(1-(2-Methoxyacetyl)piperidin-3-yl)-5-(2-methyl-4-phenoxyphenyl)-4-oxo-4,5-dihydro-3H-1-thia-3,5,8-triazaacenaphthylene-2-carboxamide]
6.9	Cc1cc(Oc2ccccc2)ccc1N1C(=O)Nc2c(C(=O)NC3CCCCN(C#N)C3)sc3nccc1c23 (centres unmarked) [Example 97, N-(1-Cyanoazepan-3-yl)-5-(2-methyl-4-phenoxyphenyl)-4-oxo-4,5-dihydro-3H-1-thia-3,5,8-triazaacenaphthylene-2-carboxamide]
6.8	Cc1cc(Oc2ccccc2)ccc1N1C(=O)Nc2c(C(=O)N[C@@H]3CCCN(C(C)C)C3)sc3nccc1c23 [Example 101, (R)—N-(1-Isopropylpiperidin-3-yl)-5-(2-methyl-4-phenoxyphenyl)-4-oxo-4,5-dihydro-3H-1-thia-3,5,8-triazaacenaphthylene-2-carboxamide]
7.7	Cc1cc(Oc2ccccc2)ccc1N1C(=O)Nc2c(C(=O)N[C@@H]3CCN(C(=O)CCS(C)(=O)=O)C3)sc3nccc1c23 [Example 104, (R)-5-(2-Methyl-4-phenoxyphenyl)-N-(1-(3-(methylsulfonyl)propanoyl)pyrrolidin-3-yl)-4-oxo-4,5-dihydro-3H-1-thia-3,5,8-triazaacenaphthylene-2-carboxamide]
